# Laboratory results: ChEMBL document CHEMBL3817769, “Expanding the chemical space of hydrophobic pharmacophores: the role of hydrophobic substructures in the development of novel transcription modulators” (2016)
# Test system: HL-60
# Test: Induction of differentiation in human HL60 cells after 20 mins by NBT reduction assay relative to retinoic acid
# Assay type: functional
# Parameters: concentration or dose not given beside the values
row,Compound,Activity [%]
1,CC(C)(C)c1cc(C(=O)Nc2ccc(C(=O)O)cc2)cc(C(C)(C)C)c1,5.6
2,C[Si](C)(C)c1cc(C(=O)Nc2ccc(C(=O)O)cc2)cc([Si](C)(C)C)c1 [AMSILAROTENE],53
3,"4-[3-(2,5-Bis-trimethylgermanyl-phenyl)-3-oxo-propenyl]-benzoic acid (Ch55G)",1000
4,CC(C)(C)c1cc(C(=O)/C=C/c2ccc(C(=O)O)cc2)cc(C(C)(C)C)c1,640
5,C[Si](C)(C)c1cc(C(=O)/C=C/c2ccc(C(=O)O)cc2)cc([Si](C)(C)C)c1,860
